Test results reported in patent publication US20160271263A1 (Novo Nordisk A/S, priority 2010, published 2016).
Numbered stars: 1 amine (or outer) side, 2 acyl side, 3 side chain; on linkers, the order of the positions; unused ones are H or OH. Side chains are listed from the residue outwards. Peptide text beside a SMILES is read from it. * marks the point of attachment. C18 diacid = O=C(O)CCCCCCCCCCCCCCCCC(=O)*; γGlu = O=C(O)[C@H](CCC(=O)[*:2])N[*:1]; AEEA = NCCOCCOCC(=O)O

What follows are compounds tested against glucagon receptor (Homo sapiens, UniProt P47871) (assay: cell-based).
Sequence of glucagon receptor (P47871 26-477): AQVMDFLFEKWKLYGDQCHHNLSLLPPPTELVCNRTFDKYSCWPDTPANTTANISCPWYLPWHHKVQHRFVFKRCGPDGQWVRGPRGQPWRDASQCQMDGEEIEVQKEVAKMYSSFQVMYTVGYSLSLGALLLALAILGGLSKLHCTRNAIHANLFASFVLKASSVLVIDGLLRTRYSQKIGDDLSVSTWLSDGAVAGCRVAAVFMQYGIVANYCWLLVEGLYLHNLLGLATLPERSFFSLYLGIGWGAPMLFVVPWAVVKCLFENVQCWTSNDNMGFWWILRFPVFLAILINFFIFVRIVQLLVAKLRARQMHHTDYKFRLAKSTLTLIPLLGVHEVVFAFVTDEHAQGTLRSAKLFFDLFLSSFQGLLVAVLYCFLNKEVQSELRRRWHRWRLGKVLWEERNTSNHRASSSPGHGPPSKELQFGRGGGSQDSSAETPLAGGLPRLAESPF
Protocol: The cells (14000 per well) were incubated (37° C., 5% CO2) overnight in 384-well plates. Next day the cells were loaded with a calcium responsive dye that only distributed into the cytoplasm. Probenecid, an inhibitor of the organic anion transporter, was added to prevent the dye from leaving the cell. A PDE inhibitor was added to prevent formatted cAMP from being degraded. […] End point data were collected after 6 minutes. An increase in intracellular cAMP was proportional to an increased in calcium concentrations in the cytoplasm. […] EC50-values were calculated in Prism5.

| EC50 | Compound |
| --- | --- |
| 0.022 nM | CC(C)C[C@H](NC(=O)[C@H](Cc1ccc(O)cc1)NC(=O)[C@H](CCCCN)NC(=O)[C@H](CO)NC(=O)[C@H](Cc1ccc(O)cc1)NC(=O)[C@H](CC(=O)O)NC(=O)[C@H](CO)NC(=O)[C@@H](NC(=O)[C@H](Cc1ccccc1)NC(=O)[C@@H](NC(=O)CNC(=O)[C@H](CCC(N)=O)NC(=O)[C@H](CO)NC(=O)[C@@H](N)Cc1c[nH]cn1)[C@@H](C)O)[C@@H](C)O)C(=O)N[C@@H](CC(=O)O)C(=O)N[C@@H](CO)C(=O)N[C@@H](CCCCN)C(=O)N[C@@H](CCCNC(=N)N)C(=O)N[C@@H](C)C(=O)N[C@@H](CCC(N)=O)C(=O)N[C@@H](CCC(=O)O)C(=O)N[C@@H](Cc1ccccc1)C(=O)N[C@H](C(=O)N[C@@H](CCCCNC(=O)COCCOCCNC(=O)COCCOCCNC(=O)CC[C@H](NC(=O)CCCCCCCCCCCCCCCCC(=O)O)C(=O)O)C(=O)N[C@@H](Cc1c[nH]c2ccccc12)C(=O)N[C@@H](CC(C)C)C(=O)N[C@@H](CC(C)C)C(=O)N[C@@H](CC(N)=O)C(=O)N[C@H](C(=O)O)[C@@H](C)O)C(C)C [Example 4] (H-HSQGTFTSDYSKYLDSKRAQEFVK([AEEA-AEEA-γGlu-C18 diacid])WLLNT-OH; N-terminus and C-terminus assumed) |
| 0.053 nM | CC(C)C[C@H](NC(=O)[C@H](Cc1ccc(O)cc1)NC(=O)[C@H](CCCCN)NC(=O)[C@H](CO)NC(=O)[C@H](Cc1ccc(O)cc1)NC(=O)[C@H](CC(=O)O)NC(=O)[C@H](CO)NC(=O)[C@@H](NC(=O)[C@H](Cc1ccccc1)NC(=O)[C@@H](NC(=O)CNC(=O)[C@H](CCC(N)=O)NC(=O)[C@H](CO)NC(=O)[C@@H](N)Cc1c[nH]cn1)[C@@H](C)O)[C@@H](C)O)C(=O)N[C@@H](CC(=O)O)C(=O)N[C@@H](CO)C(=O)N[C@@H](CCCNC(=N)N)C(=O)N[C@@H](CCCNC(=N)N)C(=O)N[C@@H](C)C(=O)N[C@@H](CCC(N)=O)C(=O)N[C@@H](CCC(=O)O)C(=O)N[C@@H](Cc1ccccc1)C(=O)N[C@H](C(=O)N[C@@H](CCCCNC(=O)CC[C@H](NC(=O)CC[C@H](NC(=O)COCCOCCNC(=O)CC[C@H](NC(=O)CCCCCCCCCCCCCCCCC(=O)O)C(=O)O)C(=O)O)C(=O)O)C(=O)N[C@@H](Cc1c[nH]c2ccccc12)C(=O)N[C@@H](CC(C)C)C(=O)N[C@@H](CC(C)C)C(=O)N[C@@H](CO)C(=O)N[C@H](C(=O)O)[C@@H](C)O)C(C)C [Example 91, N^ε24-[(4S)-4-carboxy-4-[[(4S)-4-carboxy-4-[[2-[2-[2-[[(4S)-4-carboxy-4-(17-carboxyheptadecanoylamino)butanoyl]amino]ethoxy]ethoxy]acetyl]amino]butanoyl]amino]butanoyl]-[Glu21,Lys24,Leu27,Ser28]-Glucagon] |
| 0.206 nM | CC(C)C[C@H](NC(=O)[C@H](Cc1ccc(O)cc1)NC(=O)[C@H](CCCCN)NC(=O)[C@H](CO)NC(=O)[C@H](Cc1ccc(O)cc1)NC(=O)[C@H](CC(=O)O)NC(=O)[C@H](CO)NC(=O)[C@@H](NC(=O)[C@H](Cc1ccccc1)NC(=O)[C@@H](NC(=O)CNC(=O)[C@H](CCC(N)=O)NC(=O)[C@H](CO)NC(=O)[C@@H](N)Cc1c[nH]cn1)[C@@H](C)O)[C@@H](C)O)C(=O)N[C@@H](CC(=O)O)C(=O)N[C@@H](CO)C(=O)N[C@@H](CCCNC(=N)N)C(=O)N[C@@H](CCCCNC(=O)COCCOCCNC(=O)COCCOCCNC(=O)CC[C@H](NC(=O)CCCCCCCCCCCCCCCCC(=O)O)C(=O)O)C(=O)N[C@@H](C)C(=O)N[C@@H](CCC(N)=O)C(=O)N[C@@H](CC(=O)O)C(=O)N[C@@H](Cc1ccccc1)C(=O)N[C@H](C(=O)N[C@@H](CCC(N)=O)C(=O)N[C@@H](Cc1c[nH]c2ccccc12)C(=O)N[C@@H](CC(C)C)C(=O)N[C@@H](CC(C)C)C(=O)N[C@@H](CC(N)=O)C(=O)N[C@H](C(=O)O)[C@@H](C)O)C(C)C [Example 18] (H-HSQGTFTSDYSKYLDSRK([AEEA-AEEA-γGlu-C18 diacid])AQDFVQWLLNT-OH; N-terminus and C-terminus assumed) |
